A short description of data set [1]: Hepatic clearance in human liver microsomes by LC/MS/MS analysis. In kind it is ADME, Microsome.
Data set [2] addresses T1, Tyrosine-protein kinase JAK1 (Homo sapiens, UniProt P23458).
Data set [3] can be described thus: Hepatic clearance in human hepatocytes after 1 to 4 hrs by LC/MS/MS analysis. In kind it is ADME, cell-based, Liver, Hepatocyte.
Data set [4] in a line: Apparent permeability across apical to basolateral side in dog MDCK cells. It is filed as ADME, cell-based, Canis lupus familiaris.
In data set [5] the target is T1, Tyrosine-protein kinase JAK1. This is another data set of the same source.
For data set [6] the target is unchanged. The source holds these as a separate data set.

T1 sequence (P23458 whole entry): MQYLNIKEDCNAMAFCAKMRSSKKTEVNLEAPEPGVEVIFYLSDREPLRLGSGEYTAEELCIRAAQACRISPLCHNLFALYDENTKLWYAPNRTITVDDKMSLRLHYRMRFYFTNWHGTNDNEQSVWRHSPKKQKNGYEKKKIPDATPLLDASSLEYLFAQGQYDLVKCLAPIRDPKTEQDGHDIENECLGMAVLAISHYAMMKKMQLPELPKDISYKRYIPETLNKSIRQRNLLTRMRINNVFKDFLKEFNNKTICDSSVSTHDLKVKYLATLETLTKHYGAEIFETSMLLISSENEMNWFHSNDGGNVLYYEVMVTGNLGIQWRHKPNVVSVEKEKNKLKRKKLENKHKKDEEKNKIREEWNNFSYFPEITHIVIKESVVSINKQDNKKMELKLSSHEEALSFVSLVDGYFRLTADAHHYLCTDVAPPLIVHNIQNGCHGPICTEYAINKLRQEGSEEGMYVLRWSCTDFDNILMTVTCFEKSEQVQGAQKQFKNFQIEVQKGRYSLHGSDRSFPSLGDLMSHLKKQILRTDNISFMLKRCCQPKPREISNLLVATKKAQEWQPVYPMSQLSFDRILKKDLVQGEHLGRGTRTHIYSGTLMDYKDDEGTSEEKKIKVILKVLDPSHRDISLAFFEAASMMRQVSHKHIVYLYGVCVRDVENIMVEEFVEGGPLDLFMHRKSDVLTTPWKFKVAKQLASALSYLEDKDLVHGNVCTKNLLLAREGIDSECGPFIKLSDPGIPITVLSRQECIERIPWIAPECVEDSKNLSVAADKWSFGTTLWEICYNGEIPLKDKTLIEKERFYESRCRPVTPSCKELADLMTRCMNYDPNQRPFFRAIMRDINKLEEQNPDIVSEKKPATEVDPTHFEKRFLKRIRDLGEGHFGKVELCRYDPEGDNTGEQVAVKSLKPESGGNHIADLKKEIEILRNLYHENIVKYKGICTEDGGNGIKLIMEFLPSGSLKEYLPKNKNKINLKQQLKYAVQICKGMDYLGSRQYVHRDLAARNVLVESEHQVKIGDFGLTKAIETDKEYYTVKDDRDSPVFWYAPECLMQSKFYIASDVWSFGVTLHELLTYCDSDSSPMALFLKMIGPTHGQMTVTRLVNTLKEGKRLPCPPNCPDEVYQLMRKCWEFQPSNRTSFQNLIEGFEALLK

Broadly, the Ki is a dissociation constant, usually derived from enzyme kinetics or from competition with a known ligand. Regarding `C[C@@H](O)c1nc2cnc3[nH]ccc3c2n1[C@@H]1CCCOC1`, the CLhep predicted in data set [1] is 4.6 mL/min/kg. In data set [2], this compound gave an inhibition constant Ki of 68 nM.

The Papp A→B is how fast a substance crosses the layer from the apical side. In general, EC50 refers to the concentration needed to bring the measured effect to its halfway point. A lower EC50 goes with greater potency. On to `C[C@@H](O)c1nc2cnc3[nH]ccc3c2n1[C@H]1CC[C@H](NCC(F)F)CC1`, for which the CLhep predicted in data set [1] is 3.6 mL/min/kg; in data set [3] it was 1.1 mL/min/kg. Further, the Papp A→B in data set [4] worked out at 2.8 ×10⁻⁶ cm/s. Besides, the EC50 in data set [5] turned out to be 62 nM; in data set [6], 57 nM. Also, the Ki in data set [2] was 1.1 nM.

For `C[C@@H](O)c1nc2cnc3[nH]ccc3c2n1[C@H]1CC[C@H](NCC(F)(F)F)C1`, the CLhep predicted in data set [1] is 5.6 mL/min/kg; in data set [3], 3.5 mL/min/kg. The apical-to-basolateral permeability (Papp A→B) in data set [4] turned out to be 10 ×10⁻⁶ cm/s. Besides, the EC50 in data set [5] is 82 nM; in data set [6], 74 nM. The inhibitory constant (Ki) in data set [2] was determined as 1.2 nM.

`CO[C@H]1CC[C@H](n2c([C@@H](C)O)nc3cnc4[nH]ccc4c32)CC1`: the CLhep predicted is 1.3 mL/min/kg in data set [1] and 5.9 mL/min/kg in data set [3]. Also, the Papp A→B in data set [4] was 6.7 ×10⁻⁶ cm/s.

With `C[C@@H](O)c1nc2cnc3[nH]ccc3c2n1[C@H]1CC[C@@H](O)CC1`, the CLhep predicted in data set [1] is 2.1 mL/min/kg. Moreover, the EC50 in data set [6] came to 380 nM. Further, the inhibitory constant (Ki) in data set [2] came to 12 nM.

Consider `C[C@@H](O)c1nc2cnc3[nH]ccc3c2n1C1CCOCC1`, for which, in data set [2], the affinity, expressed as Ki, was 31 nM.

Take `C[C@@H](O)c1nc2cnc3[nH]ccc3c2n1[C@@H]1CCCN(C(=O)CC#N)C1`: in data set [1], the CLhep predicted is 1 mL/min/kg. The apparent permeability from apical to basolateral (Papp A→B) in data set [4] was 0.2 ×10⁻⁶ cm/s. Also, the EC50 in data set [6] came to 8200 nM. In data set [2], this compound had a Ki of 5.2 nM.

With `C[C@@H](O)c1nc2cnc3[nH]ccc3c2n1[C@H]1CC[C@H](O)CC1`, the CLhep predicted in data set [1] is 1.9 mL/min/kg. In addition, the EC50 in data set [5] was 730 nM; in data set [6], 410 nM.

`OC[C@H](O)c1nc2cnc3[nH]ccc3c2n1C1CCCCC1` had an EC50 in data set [6] of 320 nM. The compound further had an inhibition constant Ki in data set [2] of 7.2 nM.

Regarding `C[C@@H](O)c1nc2cnc3[nH]ccc3c2n1C1CCN(CCC#N)CC1`, the CLhep predicted was 4.2 mL/min/kg in data set [1] and 6.8 mL/min/kg in data set [3]. The Papp A→B in data set [4] stood at 1.9 ×10⁻⁶ cm/s. For the same compound, the results for the half-maximal effective concentration (EC50) in data set [5] and in data set [6] were 320 nM and 510 nM, respectively. This compound showed an inhibitory constant (Ki) in data set [2] of 3.4 nM.

For the compound `C[C@@H](O)c1nc2cnc3[nH]ccc3c2n1[C@@H]1CCC[C@@H](O)C1`, in data set [4], the apical-to-basolateral permeability (Papp A→B) was found to be 1.1 ×10⁻⁶ cm/s. Also, the EC50 was determined as 140 nM in data set [5] and 120 nM in data set [6].

For `C[C@@H](O)c1nc2cnc3[nH]ccc3c2n1[C@H]1CC[C@@H](NCC(F)(F)F)CC1`, the CLhep predicted is 18 mL/min/kg in data set [1] and 16 mL/min/kg in data set [3]. The compound also came in with a Ki in data set [2] of 53 nM.

For `C[C@@H](O)c1nc2cnc3[nH]ccc3c2n1[C@H]1CC[C@@H](C#N)CC1`, the CLhep predicted is 4.3 mL/min/kg in data set [1] and 5.6 mL/min/kg in data set [3]. In data set [4], the Papp A→B was determined as 4.2 ×10⁻⁶ cm/s. In addition, the EC50 in data set [5] is 78 nM; in data set [6], 49 nM. The same compound registered a Ki in data set [2] of 0.9 nM.

As to `C[C@@H](O)c1nc2cnc3[nH]ccc3c2n1[C@@H]1CCCN(C(=O)CC(F)(F)F)C1`, the CLhep predicted in data set [1] is 5.2 mL/min/kg. Besides, the Ki in data set [2] was determined as 43 nM.

On to `C[C@@H](O)c1nc2cnc3[nH]ccc3c2n1C1CCN(CC(F)(F)F)CC1`, for which the results for the CLhep predicted in data set [1] and in data set [3] were 9.2 mL/min/kg and 8.5 mL/min/kg, respectively. Moreover, in data set [4], the Papp A→B came out at 25 ×10⁻⁶ cm/s. The concentration for a half-maximal effect (EC50) came out at 820 nM in data set [5] and 110 nM in data set [6]. For the same compound, the Ki in data set [2] worked out at 2.6 nM.

`CC[C@@H](O)c1nc2cnc3[nH]ccc3c2n1C1CCCCC1`: the CLhep predicted in data set [1] was 7.6 mL/min/kg; in data set [3], 12 mL/min/kg. In data set [4], the Papp A→B stood at 22 ×10⁻⁶ cm/s.

For the compound `CCN1CCC(n2c([C@@H](C)O)nc3cnc4[nH]ccc4c32)C(F)(F)C1` (stereo not given in full), the CLhep predicted in data set [1] is 2.9 mL/min/kg; in data set [3] it was 3.7 mL/min/kg. Further, the Papp A→B in data set [4] turned out to be 15 ×10⁻⁶ cm/s. Further, the EC50 in data set [5] is 330 nM; in data set [6], 88 nM. Moreover, affinity in data set [2] was put at a Ki of 2 nM.

The values above are taken from ChEMBL document CHEMBL2385026, “Identification of C-2 hydroxyethyl imidazopyrrolopyridines as potent JAK1 inhibitors with favorable physicochemical properties and high selectivity over JAK2” (J Med Chem, 2013).
